Converted amounts (≈) assume the structure as drawn. Read-outs that look alike come from different tables or passages of the source.
Tests used:
[1] = tested on: Stapyhlococcus aureus ATCC®6538; assay: Minimal inhibition concentration (MIC), microdilution method; assay type: cell-based, Staphylococcus aureus; conditions: for MIC: Staphylococcus aureus
Description: (§1) The antimicrobial activity of different substances was examined and compared to perillic acid in vitro using the microdilution method adapted from DIN EN ISO 20776-1:2006. Besides perillic acid and its sodium salt, other organic acids like levulinic acid, p-anisic acid, benzoic acid and sorbic acid as well as alkane-1,2-diols such as hexane-1,2-diol, octane-1,2-diol and decane-1,2-diol were studied. Additionally, the commonly used preservatives 2-phenoxyethanol, 2-phenylethanol and benzyl alcohol were investigated.
(§2) All experiments were done in 96-well plates in a final volume of 200 μL. Test solutions of the investigated compounds were prepared in 25 mM buffered water. The procedure was conducted as following: 4 μL of the particular stock solution were mixed with 196 μL culture medium containing a defined inoculum of the respective target strain. Sterile controls (not inoculated) and growth controls (buffer instead of compound added) were performed. All compound concentrations were tested in triplicate for several times. The following contamination germs were examined: Escherichia coli ATCC 8739, Pseudomonas aeruginosa ATCC 9027, Stapyhlococcus aureus ATCC®6538, Bacillus subtilis subsp. spizizenii ATCC®6633, Candida albicans ATCC®10231 and Aspergillus brasiliensis ATCC®16404. The strains were cultivated either in Mueller-Hinton II Bouillon (Escherichia coli, Pseudomonas aeruginosa, Staphylococcus aureus), in yeast peptone dextrose (Bacillus subtilis, Candida albicans) or in potato dextrose medium (Aspergillus brasiliensis). All culture media were buffered with 25 mM MES-buffer. For compound testing, the plates were incubated at 37° C. for Escherichia coli, Pseudomonas aeruginosa and Staphylococcus aureus, at 28° C. for Bacillus subtilis and Candida albicans, and at 25° C. for Aspergillus brasiliensis. Plates were evaluated after 24 h and 72 h, respectively. The minimal inhibitory concentration (MIC) is defined as the concentration where no microbial growth was observed after 24 h and 72 h incubation at the specified temperature.
(§3) MIC-values are given according to the following letter code.

[2] = tested on: Escherichia coli ATCC 8739; assay: Minimal inhibition concentration (MIC), microdilution method adapted from DIN EN ISO 20776-1:2006; assay type: cell-based; conditions: for MIC: Escherichia coli
Description: as §1, §2, §3

[3] = tested on: Pseudomonas aeruginosa ATCC 9027; assay: Minimal inhibition concentration (MIC), microdilution method; assay type: cell-based; conditions: for MIC: Pseudomonas aeruginosa
Description: as §1, §2, §3

[4] = tested on: Aspergillus brasiliensis ATCC®16404; assay: as above; assay type: cell-based; conditions: for MIC: Aspergillus brasiliensis
Description: as §1, §2, §3

[5] = tested on: Bacillus subtilis subsp. spizizenii ATCC®6633; assay: as above; assay type: cell-based; conditions: for MIC: Bacillus subtilis
Description: as §1, §2, §3

[6] = tested on: Candida albicans ATCC®10231; assay: as above; assay type: cell-based; conditions: for MIC: Candida albicans
Description: as §1, §2, §3

[7] = tested on: Escherichia coli; assay: Combination of substances with perillic acid: reduction of the MIC of perillic acid; assay type: cell-based; conditions: test compound combined with perillic acid; experiments as in Example 1
Method: as §2
(§4) Activity of perillic acid was comparably low against Gram-negative bacteria. It was thus tested whether the respective MIC could be reduced by combination of perillic acid with selected substances.
(§5) Experiments were performed as described for Example 1 above. A reduction factor was determined, expressing the reduction of the MIC of perillic acid that was achievable by combination with the combination partner. For example, a reduction factor of 2 means that the MIC of perillic acid was reduced by a factor of 2 by combination of perillic acid with the respective activity enhancing substance.

[8] = tested on: Pseudomonas aeruginosa; assay: as above; assay type: cell-based; conditions: test compound combined with perillic acid; experiments as in Example 1
Method: as §2, §4, §5

[9] = Mueller-Hinton II Bouillon, 25 mM MES-buffer, 37° C., no growth after 24 h and 72 h
[10] = ATCC8739, read-out: MIC [A to D] Escherichia coli
[11] = ATCC9027, read-out: MIC [A to D] Pseudomonas aeruginosa
[12] = potato dextrose medium, 25 mM MES-buffer, 25° C., no growth after 24 h and 72 h
[13] = yeast peptone dextrose, 25 mM MES-buffer, 28° C., no growth after 24 h and 72 h
[14] = ATCC8739, Mueller-Hinton II Bouillon, 25 mM MES-buffer, 37° C., no growth after 24 h and 72 h, read-out: MIC [A to D] Escherichia coli
[15] = ATCC6633, read-out: MIC [A to D] Bacillus subtilis
[16] = ATCC10231, read-out: MIC [A to D] Candida albicans
[17] = ATCC9027, Mueller-Hinton II Bouillon, 25 mM MES-buffer, 37° C., no growth after 24 h and 72 h, read-out: MIC [A to D] Pseudomonas aeruginosa
[18] = ATCC16404, potato dextrose medium, 25 mM MES-buffer, 25° C., no growth after 24 h and 72 h, read-out: MIC [A to D] Aspergillus brasiliensis
[19] = ATCC6538, Mueller-Hinton II Bouillon, 25 mM MES-buffer, 37° C., no growth after 24 h and 72 h, read-out: MIC [A to D] Staphylococcus aureus
[20] = ATCC6633, yeast peptone dextrose, 25 mM MES-buffer, 28° C., no growth after 24 h and 72 h, read-out: MIC [A to D] Bacillus subtilis
[21] = ATCC10231, yeast peptone dextrose, 25 mM MES-buffer, 28° C., no growth after 24 h and 72 h, read-out: MIC [A to D] Candida albicans

SMILES	MIC [A to D] Staphylococcus aureus [1, 9]	MIC [A to D] Aspergillus brasiliensis [4, 12]	MIC [A to D] Bacillus subtilis [5, 13]	MIC [A to D] Candida albicans [6, 13]	MIC [2, 14] [µg/mL]	MIC [A to D] Pseudomonas aeruginosa [3, 9]	MIC [A to D] Escherichia coli [2, 9]	Reduction factor (reduction of the MIC of perillic acid by combination with the test compound) Escherichia coli [7]	Reduction factor (reduction of the MIC of perillic acid by combination with the test compound) Pseudomonas aeruginosa [8]	MIC [3, 17] [µg/mL]	MIC [4, 18] [µg/mL]	other results
CC(=O)C1C(=O)C=C(C)OC1=O (stereo not shown) [Dehydroacetic acid]	D (MIC<0.1% (w/v))	D (MIC<0.1% (w/v))	D (MIC<0.1% (w/v))	D (MIC<0.1% (w/v))								MIC [2, 10]: 1000 to 5000 µg/mL (≈ 5.95 to 29.7 mM); MIC [3, 11]: 1000 to 5000 µg/mL (≈ 5.95 to 29.7 mM)
CCCCCCCCCCC(O)CO (stereo not shown) [Dodecane-1,2-diol]	D (MIC<0.1% (w/v))	D (MIC<0.1% (w/v))	D (MIC<0.1% (w/v))	D (MIC<0.1% (w/v))	5000 to 10000 (≈ 24.7 to 49.4 mM)	D (MIC<0.1% (w/v))						
O=C([O-])c1ccccc1.[Na+] [Sodium benzoate]	B (MIC=0.5-1% (w/v))	A (MIC>1% (w/v))	D (MIC<0.1% (w/v))	C (MIC=0.1-0.5% (w/v))		B (MIC=0.5-1% (w/v))	B (MIC=0.5-1% (w/v))					
C=C(C)[C@H]1CC=C(C(=O)O)CC1 [R-Perillic acid]	D (MIC<0.1% (w/v))	D (MIC<0.1% (w/v))	D (MIC<0.1% (w/v))	D (MIC<0.1% (w/v))		B (MIC=0.5-1% (w/v))	C (MIC=0.1-0.5% (w/v))					
C/C=C/C=C/C(=O)[O-].[K+] [Potassium sorbate]	A (MIC>1% (w/v))	A (MIC>1% (w/v))				A (MIC>1% (w/v))		200	40			MIC [2, 10]: 5000 to 10000 µg/mL; MIC [5, 15]: 1000 to 5000 µg/mL; MIC [6, 16]: 5000 to 10000 µg/mL
CCCCC(O)CO (stereo not shown) [Hexane-1,2-diol]	A (MIC>1% (w/v))		A (MIC>1% (w/v))	A (MIC>1% (w/v))	5000 to 10000 (≈ 42.3 to 84.6 mM)					5000 to 10000 (≈ 42.3 to 84.6 mM)	5000 to 10000 (≈ 42.3 to 84.6 mM)	
OCc1ccccc1 [Benzyl Alcohol, reference compound]					5000 to 10000 (≈ 46.2 to 92.5 mM)			20	5	5000 to 10000 (≈ 46.2 to 92.5 mM)	5000 to 10000 (≈ 46.2 to 92.5 mM)	MIC [1, 19]: 5000 to 10000 µg/mL (≈ 46.2 to 92.5 mM); MIC [5, 20]: 5000 to 10000 µg/mL (≈ 46.2 to 92.5 mM); MIC [6, 21]: 5000 to 10000 µg/mL (≈ 46.2 to 92.5 mM)
C=C(C)C1CC=C(C(=O)[O-])CC1.[Na+] (stereo not shown) [Sodium perillate]	D (MIC<0.1% (w/v))	D (MIC<0.1% (w/v))	D (MIC<0.1% (w/v))	D (MIC<0.1% (w/v))		B (MIC=0.5-1% (w/v))	C (MIC=0.1-0.5% (w/v))					
OCCOc1ccccc1 [2-Phenoxyethanol, reference compound]								30	20			MIC ([1]; ATCC6538, read-out: MIC [A to D] Staphylococcus aureus): 5000 to 10000 µg/mL (≈ 36.2 to 72.4 mM); MIC [2, 10]: 5000 to 10000 µg/mL (≈ 36.2 to 72.4 mM); MIC [3, 11]: 5000 to 10000 µg/mL (≈ 36.2 to 72.4 mM); MIC ([4]; ATCC16404, read-out: MIC [A to D] Aspergillus brasiliensis): 5000 to 10000 µg/mL (≈ 36.2 to 72.4 mM); MIC [5, 15]: 5000 to 10000 µg/mL (≈ 36.2 to 72.4 mM); MIC [6, 16]: 5000 to 10000 µg/mL (≈ 36.2 to 72.4 mM)
C=C(C)[C@@H]1CC=C(C(=O)O)CC1 [S-Perillic acid]	D (MIC<0.1% (w/v))	D (MIC<0.1% (w/v))	D (MIC<0.1% (w/v))	D (MIC<0.1% (w/v))		B (MIC=0.5-1% (w/v))	C (MIC=0.1-0.5% (w/v))					
OCCc1ccccc1 [2-Phenylethanol, reference compound]					5000 to 10000 (≈ 40.9 to 81.9 mM)			40	8	5000 to 10000 (≈ 40.9 to 81.9 mM)	5000 to 10000 (≈ 40.9 to 81.9 mM)	MIC [1, 19]: 5000 to 10000 µg/mL (≈ 40.9 to 81.9 mM); MIC [5, 20]: 5000 to 10000 µg/mL (≈ 40.9 to 81.9 mM); MIC [6, 21]: 5000 to 10000 µg/mL (≈ 40.9 to 81.9 mM)
CCCCCCCCC(O)CO (stereo not shown) [Decane-1,2-diol]	D (MIC<0.1% (w/v))	D (MIC<0.1% (w/v))	D (MIC<0.1% (w/v))	D (MIC<0.1% (w/v))	1000 to 5000 (≈ 5.74 to 28.7 mM)					1000 to 5000 (≈ 5.74 to 28.7 mM)		
O=C(O)c1ccccc1O [Salicylic acid]	D (MIC<0.1% (w/v))		D (MIC<0.1% (w/v))			D (MIC<0.1% (w/v))	D (MIC<0.1% (w/v))	40	80		1000 to 5000 (≈ 7.24 to 36.2 mM)	MIC [6, 21]: 1000 to 5000 µg/mL (≈ 7.24 to 36.2 mM)
COc1ccc(C(=O)O)cc1 [p-Anisic acid]					1000 to 5000 (≈ 6.57 to 32.9 mM)					1000 to 5000 (≈ 6.57 to 32.9 mM)	1000 to 5000 (≈ 6.57 to 32.9 mM)	MIC [1, 19]: 1000 to 5000 µg/mL (≈ 6.57 to 32.9 mM); MIC [5, 20]: 1000 to 5000 µg/mL (≈ 6.57 to 32.9 mM); MIC [6, 21]: 5000 to 10000 µg/mL (≈ 32.9 to 65.7 mM)

— US20190060261A1, “ACTIVE COMBINATIONS OF PERILLIC ACID AND ACTIVITY ENHANCING SUBSTANCES” (B.R.A.I.N BIOTECHNOLOGY RESEARCH AND INFORMATION NETWORK AG, priority 2016, published 2019)
